Tests used:
[1] = system: Gi24 strain (E. coli BL21 ΔArnT expressing wt Salmonella typhimurium ArnT); experiment: Control polymyxin growth assay, Gi24 strain; assay type: cell-based, Escherichia coli; conditions: Gi24: BL21 ΔArnT with plasmid pGi24 expressing wt S. typhimurium ArnT
Excerpt: (§1) E. coli BL21 strain is used to test efficacy of tested compounds towards the E. coli ArnT protein. […] Gi24 is E. coli BL21 ΔArnT that has been transformed with the plasmid pGi24 that expresses the wt Salmonella typhimurium ArnT. […] The Gi24 strain is used to test efficacy of tested compounds towards the Salmonella typhimurium ArnT protein.
(§2) Three strains were used for the implementation of the polymyxin B growth assay for compound screening in a 96-well plate format: (1) BL21 (DE3) E. coli strain (referred to as BL21). […] E. coli BL21 strain is used to test efficacy of tested compounds towards the E. coli ArnT protein. (2) E. coli BL21(DE3) ΔArnT the endogenous E. coli ArnT gene has been deleted, thus rendering the E. coli BL21 ΔArnT strain sensitive to polymyxin B (referred to as ΔArnT). (3) E. coli BL21(DE3) ΔArnT that has been transformed with the plasmid pGi24 that expresses the wt Salmonella typhimurium ArnT (referred to as Gi24). […]
(§3) Overnight cultures of the three strains were used to inoculate LB media containing 100 μg/ml Ampicillin alone (PMXB−) or 100 μg/ml and 3 μg/ml Polymyxin B (PMXB+) at 1:2000 dilution, as appropriate. […] The 96-well plate was transferred to an Epoch 2 microplate reader (Biotek) and shaken continuously at 37° C. Growth was continuously quantitated spectrophotometrically at 600 nm. […]

E. coli BL21 strain = experiment: Control polymyxin growth assay, BL21 strain; assay type: cell-based, Escherichia coli; conditions: E. coli BL21, endogenous E. coli ArnT gene
Excerpt: as §1, §2, §3

[2] = system: E. coli BL21 ΔArnT strain; experiment: Control polymyxin growth assay, BL21 ΔArnT strain; assay type: cell-based, Escherichia coli; conditions: endogenous ArnT gene deleted
Excerpt: as §1, §2, §3

E. coli ArnT = target: T1, E. coli ArnT (Escherichia coli, UniProt P76473); experiment: Polymyxin B growth assay for compound screening, BL21 strain; assay type: cell-based; conditions: E. coli BL21 strain carrying E. coli ArnT; compound 0.5 mM; 3 μg/ml Polymyxin B; OD 600 nm
T1 construct: it carries the endogenous E. coli ArnT gene; endogenous in cells; host or cells: E. coli BL21(DE3)
T1 sequence (P76473 whole entry): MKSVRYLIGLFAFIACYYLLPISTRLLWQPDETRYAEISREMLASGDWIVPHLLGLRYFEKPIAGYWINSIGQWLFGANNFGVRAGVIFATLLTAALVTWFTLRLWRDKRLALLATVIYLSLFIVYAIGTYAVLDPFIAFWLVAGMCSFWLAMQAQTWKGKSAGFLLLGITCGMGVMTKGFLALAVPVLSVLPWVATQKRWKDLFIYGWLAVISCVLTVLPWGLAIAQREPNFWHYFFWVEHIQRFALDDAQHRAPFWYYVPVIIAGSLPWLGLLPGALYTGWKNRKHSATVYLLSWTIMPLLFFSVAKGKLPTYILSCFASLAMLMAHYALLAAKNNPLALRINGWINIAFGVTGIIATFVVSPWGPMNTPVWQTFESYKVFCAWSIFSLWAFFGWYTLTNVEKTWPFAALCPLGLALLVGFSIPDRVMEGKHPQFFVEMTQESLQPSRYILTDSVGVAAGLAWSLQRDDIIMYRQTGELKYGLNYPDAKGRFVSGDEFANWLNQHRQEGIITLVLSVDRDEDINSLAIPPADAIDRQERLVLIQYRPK
Excerpt: (§4) FIGS. 8A-J show graphic results of the polymyxin growth assay for the five Class I compounds obtained in target-based virtual screening. In this and all subsequent figures showing results of compound testing in the polymyxin growth assay, four curves are shown, (i) growth of test strain (BL21 for targeting E. coli ArnT or Gi24 for targeting S. typhimurium ArnT) in the absence of PMXB (−PMXB, represented by an open circle), (ii) growth of test strain in the presence of PMXB (+PMXB, represented by an open square), (iii) growth of test strain in the absence of PMXB and in the presence of test compound (−PMXB+Cmpd, represented by open diamond), and (iv) growth of test strain in the presence of PMXB and test compound (+PMXB+Cmpd, represented by an […]). Each point in the curves represents the mean of six measurements of absorbance (OD) at 600 nm (triplicate samples from two independent experiments). Standard deviation is not shown, but typically ranged from 0.001 to 0.1. Growth of E. coli BL21 strain (carrying the E. coli ArnT) was measured in the presence of Class I compounds 20, 14, 15, 19, or U2 (FIGS. 8A, 8C, SE, 8G and 8I, respectively). Growth of E. coli Gi24 strain (carrying the S. typhimurium ArnT) was measured in the presence of Class I compounds 20, 14, 15, 19, or U2 (FIGS. 8B, 8D, 8F, 8H and 8J, respectively). […]

[3] = target: T2, Salmonella typhimurium ArnT (Salmonella typhimurium, UniProt O52327); experiment: Polymyxin B growth assay for compound screening, Gi24 strain; assay type: cell-based; conditions: E. coli Gi24 strain carrying S. typhimurium ArnT; compound 0.5 mM; 3 μg/ml Polymyxin B; OD 600 nm
T2 construct: expressed in transfected cells; host or cells: E. coli BL21(DE3) ΔArnT transformed with plasmid pGi24 (strain Gi24)
Excerpt: as §4

## polymyxin B
[1]
  growth of strain in the presence of PMXB: growth of Gi24 strain in the presence of PMXB
E. coli BL21 strain
  growth of strain in the presence of PMXB: inherently resistant
[2]
  growth of strain in the presence of PMXB: absence of growth

## Cc1[nH]nc(O)c1C(c1ccc(Cl)cc1)c1c(O)n[nH]c1C [Compound 20, 4-[(4-chlorophenyl)-(3-methyl-5-oxo-1,2-dihydropyrazol-4-yl)methyl]-5-methyl-1,2-dihydropyrazol-3-one]
E. coli ArnT
  ArnT inhibiting activity (retardation of growth of polymyxin resistant strain in the presence of PMXB): especially strong ArnT inhibiting activity
[3]
  ArnT inhibiting activity (retardation of growth of polymyxin resistant strain in the presence of PMXB): especially strong ArnT inhibiting activity

Reference: patent US10925857B2, “Rational drug design targeting resistant gram-negative bacterial infections to polymyxin-class antibiotics” (The Trustees of Columbia University in the City of New York, priority 2015, dated 2021)
